This is an account of results in patent publication US20170059568A1, “Identification of JC viral epitopes by cytotoxic T lymphocytes in healthy individuals and their use in assays” (JANSSEN PHARMACEUTICA NV, priority 2014, published 2017).

Common to all, as to assay type: cell-based, human
The test system of experiment [1] is CD8+-enriched PBMC. Description: Direct ex vivo IFN-gamma ELISPOT screening of 98 predicted JCPyV MHC class I peptides in 92 healthy subjects. The conditions noted are these: for Positive Donors (p < 0.1): number of responding donors among about 10 donors of the predicted HLA allotype, 5*10^5 CD8+-enriched PBMC per well; for Positive Donors (p < 0.1) / tested donors/subjects with significant T cell response to the peptide: peptide 10 μM; for tested donors/subjects with significant T cell response to the peptide: initial screening, allotype-specific subjects; for JCPyV-seronegative subjects reacting against the peptide, out of 22: 22 JCPyV VP1 antibody-seronegative subjects with CTL response; for JCPyV-seronegative subjects reacting against the peptide: 22 JCPyV VP1 antibody-seronegative subjects with CTL response (adj p<0.1); for all subjects tested showing a positive response: independent of HLA-type. Here is the method:
The 9-mer and 10-mer JCPy virus test peptides were synthesized and HPLC purified to >90% (Thermo Fisher Scientific, GmbH). Peptides were solubilized in DMSO and used in ELISPOT (Mabtech, Sweden) at 10 μM.
(§1) To enrich for the CD8+ T cell population, CD4+ cells were depleted from the PBMC using magnetic cell separation, according to the manufacturer's instructions (StemCell Technologies, Vancouver, Canada).
(§2) PBMC from selected subjects were thawed, washed and seeded onto anti-IFN-γ coated 96-well plates (Mabtech, Sweden) at 2.5*10^5 or 5*10^5 cells per well. Test antigens were diluted in the assay media and added to the cells at the specified doses. Assay medium containing DMSO, and assay medium alone were included as blank conditions for all donors. Cells were incubated for 16-18 hours in a humidified atmosphere at 37° C., 5% CO2. After the incubation period the cells were washed from the plates and an in-house spot development procedure was used to determine IFN-γ production (Lonza, Cambridge, UK). Upon completion of spot development, the plates were scanned, counted and QC analysis conducted using the ImmunoSpot Analyzer (Cellular Technologies Ltd, Cleveland, US).
(§3) The spot count per well (i.e. the number of IFN-γ secreting cells per well) in response to each test antigen was analyzed. Mean values were calculated from the triplicate wells for each test condition. Data analysis was then carried out using the distribution free resampling method (DFR). The DFR method compares each test condition against the blank for each donor and calculates whether the difference is statistically significant (p<0.1).
(§4) The ELISPOT with CD8+-enriched PBMC (5*10^5 cells per well) with the standard ELISPOT assay medium without overnight resting period was used in further experiments.
All viral protein (VP1, VP2, agnoprotein, common T, large T Antigen (LTAg), and small t Antigen (stAg) from both JCPyV and BKPyV) sequences were scanned for the presence of putative HLA class I restricted epitopes. Profiling is performed at the allotype level for 16A and 12B, i.e. 28 HLA class I receptors in total. […] Therefore, during the further selection of epitopes with high expected immunogenicity potential, the following aspects were considered: high HLA-A and -B impact of epitopes, high promiscuity of epitopes, specificity to JCPyV proteins, potential preference for 9-mer peptides, minimal similarity of epitopes to human proteome sequences, location of epitopes in the JCPyV protein sequences Based on the in silico predictions, 98 peptides of the JCPyV proteins were finally selected, representing potential T cell epitopes for the major HLA class I allotypes in the global population. To test immunogenicity of these 98 peptides the ten most common HLA allotypes were selected, 5 HLA-A and 5 HLA-B allotypes (A*0101, A*0201, A*0301, A*1101, A*2402, B*0702, B*0801, B*1501, B*3501 and B*4001) and for each HLA allotype we aimed to have approximately 10 peptides that gave the strongest signal in Epibase. Alongside, the positive controls (CEF, VP1 peptide pool, and VP1 p100) and negative controls (medium blank and DMSO) were tested. The control peptide pools gave responses in the expected range, in 87% and 60% of all subjects tested, showing a positive response to the CEF and JCPyV VP1 peptide pools, respectively. […] The results for the other proteins can be found in supplementary Table 1 and 2.

In experiment [2] the test system is CD8+-enriched PBMC. Description: Direct ex vivo IFN-gamma ELISPOT validation of the top 10 peptides and their pool in 20 donors. The conditions noted are these: for donors responding (T cell response): 20 selected donors covering 8 HLA allotypes. Here is the method: The peptide pool of top 10 peptides originating from the initial screening (JCPyV pool) was solubilized in DMSO at 12.5 mg/ml per peptide with a final working concentration of the pool around 10 μM.
as §1, §2, §3, §4
To verify whether the newly identified epitopes were really immunodominant, the 10 newly identified peptides were tested individually or as a peptide pool in the optimized CD8+ T cell enriched direct ex vivo ELISPOT assay. Twenty subjects were selected which cover 8 of the 10 HLA allotypes that were initially selected. […]

The test system of experiment [3] is CD8+-enriched PBMC. Description: Direct ex vivo IFN-gamma ELISPOT optimization (cell amount, CD8+ enrichment, medium, overnight rest). On the procedure:
as §2
The spot count per well (i.e. the number of IFN-γ secreting cells per well) in response to each test antigen was analyzed. Mean values were calculated from the triplicate wells for each test condition. […]
It has been reported that for some viral peptides, the use of serum-free assay medium and overnight resting of the PBMC before stimulation with peptide can increase peptide specific T cell responses. The influence of assay medium and overnight resting of PBMC was evaluated using only CD8+-enriched PBMC from 5 HLA-A*02 subjects and one non-HLA-A*02 subject.

Turning to FESDSPNRDM (JC polyomavirus) [AP00457], in experiment [1], the “Positive Donors (p < 0.1)” value is reported as 6. For the same sequence, the “donors responding (T cell response)” value in experiment [2] stood at 90%.

In the case of FLRSSPLVWI (JC polyomavirus) [AP00386], in experiment [1], the “tested donors/subjects with significant T cell response to the peptide” value is on record as 80% and the “Positive Donors (p < 0.1)” value is 8. In addition, the “donors with significant T cell response out of 20 tested” value in experiment [2] (20 donors, peptides tested separately and as pool) is recorded as 20. In experiment [2], the “donors responding (T cell response)” value is given as 100%.

In the case of GEAAATIEV (JC polyomavirus) [AP00460], in experiment [1], the “Positive Donors (p < 0.1)” value is listed as 3.

Consider ILMWEAVTL [AP00410], for which, in experiment [3] (FIG. 1 condition C: CD8+-enriched PBMC 5*10^5 per well, 3 HLA-A*02 and one non-HLA-A*02 subject), the “subjects with significant IFN-γ response (DFR method)” value is reported as “two subjects responded”. The “donors with significant IFN-γ response” value in experiment [3] (FIG. 2 condition D: CD8+-enriched PBMC, serum containing medium, no overnight rest, 5 HLA-A*02 and one non-HLA-A*02 subject) is on record as “three of them also responded”. Further, in experiment [1], the “JCPyV-seronegative subjects reacting against the peptide, out of 22” value is given as “almost all responded”; the “JCPyV-seronegative subjects reacting against the peptide” value is given as 82%; the “Positive Donors (p < 0.1)” value is listed as 7. In experiment [1] (all 92 subjects), the “subjects showing a positive response out of 92 tested” value is on record as 44 and the “all subjects tested showing a positive response” value was 37%. The “all subjects tested showing a positive response” value in experiment [1] (all 92 subjects, listed as JCPyV VP1 p100 9-mer) is 48%. In experiment [1] (donors with A*0201 and A*2402 allotypes), the “significant responses in A*0201 and A*2402 allotypes” value is 58%.

For the sequence “ILMWEAVTLK [AP00388, JCPyV VP1 p100 10-mer]”, in experiment [1] (A*2402 donors), the “potency at inducing CD8+ T cell responses, 10-mer compared with 9-mer” value was “far less potent than the 9-mer”.

In the case of LTCGNILMW (JC polyomavirus) [AP00367], the “Positive Donors (p < 0.1)” value in experiment [1] is 4.

As for MAGVAWIHCL (JC polyomavirus) [AP00423], in experiment [1], the “tested donors/subjects with significant T cell response to the peptide” value is recorded as 90% and the “Positive Donors (p < 0.1)” value was 9.

With RILIFLLEFL (JC polyomavirus) [AP00402], in experiment [1], the “JCPyV-seronegative subjects reacting against the peptide, out of 22” value was 8; the “JCPyV-seronegative subjects reacting against the peptide” value is listed as 36%; the “Positive Donors (p < 0.1)” value is reported as 6.

In the case of SAIAQLGYRF (JC polyomavirus) [AP00441], the “Positive Donors (p < 0.1)” value in experiment [1] is 5.

STISQAFWNL (JC polyomavirus) [AP00400]: the “Positive Donors (p < 0.1)” value in experiment [1] is listed as 6.

YPISFLLTDL (JC polyomavirus) [AP00377]: the “Positive Donors (p < 0.1)” value in experiment [1] is recorded as 5.
